Entries after “also recorded” stand apart in the source; their conditions may differ.
Columns and labels:
ERα-positive cell lines [1] = assay: WST assay, ERα-positive cell lines; type: cell-based; conditions: Homo sapiens, read-out: anti-proliferative IC50, WST
Protocol: (§1) Cell viability assays: Cells were seeded in 96-well plates (2×10^3 cells/well) one day before the treatment. Cells were treated with varying concentrations of ERX-41 or ERX-11 analogs for 3-6 days. Then effects of ERX-41 or ERX-11 analogs on cell viability were measured in triplicate or sextuplicate with multiple biological replicates using the WST-1 (Promega), MTT as previously described^33 or CellTiter-Glo 2.0 (Promega) assays.

ERα-positive cell lines [2] = assay: CellTiter-Glo assay, ERα-positive cell lines; type: cell-based; conditions: Homo sapiens, read-out: anti-proliferative IC50, CellTiter-Glo
Protocol: as §1

TNBC cells (MDA-MB-231) = assay: Transmission electron microscopy of ER; type: cell-based, Human; conditions: 1 μM, within 4 h
Protocol: Transmission Electron Microscopy: DMSO or ERX-41 treated cells were fixed with 2.5% glutaraldehyde (Electron Microscopy Sciences) in 0.1 M sodium cacodylate pH7.4 buffer (Electron Microscopy Sciences) for 20 min at room temperature. After rinsing with 0.1 M sodium cacodylate pH7.4 buffer, cells were further fixed with 1% Osmium with 0.8% K3Fe(CN6) in 0.1 M sodium cacodylate pH7.4 buffer. After pre-staining with 4% uranyl acetate in 50% ethanol, cells were dehydrated with series concentrations of ethanol (from 50% to 100%). After transitioning from propylene oxide to resin and embedding in Embed 812 resin (Electron Microscopy Sciences), cells were located using light microscopy and trimmed out. 60-70 nm-thin sections were cut, mounted on formvar-coated grids, and viewed by a transmission electron microscope (Tecnai G2 spirit; FEI) equipped with a LaB6 source using a voltage of 120 kV.

[3] = system: MDA-MB-231 TNBC tumor xenografts; assay: IHC of ER stress markers in TNBC xenografts after a single dose; type: in vivo, mice; conditions: single dose 10 mg/kg oral, within 24 h
Protocol: Immunohistochemistry: Immunohistochemical studies were performed as described previously.^7 For the immunohistochemical studies, tissue sections were blocked in background sniper (Biocare Medical, RS966L) followed by overnight incubation with primary antibodies anti-Ki-67 antibody (1:1000, GeneTex cat #GTX16667 RRID:AB_422351) (link), anti-CHOP antibody (1:2000, Sigma, Cat #HPA068416), anti-PERK (phospho T982) antibody (1:150, Abcam Cat #ab192591, RRID:AB_2728666) link)), anti-phospho-eIF2α (Ser51) (1:50, Cell signaling, cs3398) and subsequent secondary antibody incubation for 60 min at room temperature. Immunoreactivity was visualized by using the DAB substrate and counterstained with hematoxylin (Vector Lab, Inc.). Percent of Ki67 positive proliferating cells was calculated in five randomly selected high-power fields (×40).

TNBC cells = assay: Global de novo protein synthesis (puromycin labeled nascent proteins), TNBC cells; type: cell-based, Human; conditions: 1 μM
Protocol: (§2) Western blotting: Whole cell lysates from breast cancer cells were prepared with 2× sample buffer (60 mM Tris-HCl, pH 6.8, 2% sodium dodecyl sulfate, 10% glycerol), and before loading mixed with loading buffer (5% 2-mercaptoethanol, 0.1% bromophenol blue) and boiled for denaturation, as previously described.^33 Proteins were separated by SDS-PAGE and subjected to Western analysis using antibodies. To detect nascent translated proteins, puromycin (final concentration 10 μg/mL) was added into cell plates 30 minutes before harvesting cells. Then samples were subjected to the Western blotting. Nascent proteins were detected by anti-puromycin antibody.

[4] = system: MDA-MB-231 cells with LIPA KO; assay: CellTiter-Glo response of MDA-MB-231 knockout clones; type: cell-based, Human
Protocol: as §1
CRISPR Screen: Human Brunello CRISPR knockout pooled library was purchased from Addgene (Addgene #73178) (via David Root and John Doench). The library containing lentivirus was transduced into cells in biological replicates or triplicates at a multiplicity of infection (MOI) of ˜0.5 and a minimum of 500× coverage. Two days later after transduction, uninfected cells were removed with puromycin selection. The library containing cells was treated with vehicle or ERX-41 for 2 weeks. Genomic DNA was extracted from same number of cells. The sgRNA cassette retrieved by PCR, followed by Next Generation Sequencing (NGS). NGS data was analyzed by MAGeCK (Li et al., Genome Biology, 2014 PMID: 25476604).
Lentiviral constructs cloning: LentiCRISPRv2 vector was used for CRSPR KO experiments. sgRNAs, which were chosen from human CRISPR knockout pooled library, were cloned into lentiCRISPRv2 vector^34. […]

SUM-159 cells = assay: CellTiter-Glo, SUM-159 WT cells (mCherry-RAMP4); type: cell-based; conditions: Homo sapiens, SUM159; SUM-159 stably transfected mCherry-RAMP4, CellTiter-Glo
Protocol: as §1

[5] = system: SUM-159 cells with LIPA-KO reconstituted with LIPA constructs; assay: Response of SUM-159 LIPA KO cells reconstituted with LIPA constructs (CellTiter-Glo, western, RT-qPCR); type: cell-based, Human
Protocol: as §1
Lentiviral constructs cloning: LentiCRISPRv2 vector was used for CRSPR KO experiments. sgRNAs, which were chosen from human CRISPR knockout pooled library, were cloned into lentiCRISPRv2 vector^34. Human LIPA cDNA (GenBank: BC012287) or mouse LIPA cDNA (NM_021460) were clone into pWPI for over expression experiments. For TurboID experiment, the LIPA-TurboID sequence was cloned into pCW57-MCS1-2A-MCS2 vector. LentiCRISPR v2 was purchased from Addgene (Addgene #52961; //n2t.net/addgene:52961; RRID:Addgene_52961) (via Feng Zhang). pWPI was purchased from Addgene (Addgene #12254; //n2t.net/addgene:12254; RRID:Addgene_12254) (via Didier Trono). pCW57-MCS1-2A-MCS2 was purchased from Addgene (#71782) (via Adam Karpf). Human LIPA gene is referred as LIPA, while mouse LIPA gene is referred as mLIPA in this disclosure. Since LIPA overexpression was introduced in LIPA CRISPR KO background, to avoid being targeted by CRISPR-cas9, the LIPA sgRNA target sequence including PAM, tt aac cga att cct cat ggg agg, was mutated to tt aac cga att cct caC ggA agA in all of the LIPA overexpression constructs without protein coding change. In-Fusion Cloning kit (Takara) was used to generate different mutants of LIPA.
as §2
Real-time quantitative PCR (RT-qPCR): Total RNA was prepared from breast cancer cells using the RNeasy Mini Kit (Qiagen) according to the manufacturer protocols. Subsequently, total RNAs were reverse transcribed into cDNA using iScript Reverse Transcription Supermix (Bio-rad) and by using SYBR Green on an Illumina Real-Time PCR system.

## CC(C)COc1cc(C(=O)Nc2ccc(C(=O)N[C@H]3CC[C@H](C)CC3)cc2OCC(C)C)ccc1NC(=O)c1ccc([N+](=O)[O-])c(OCCO)c1 [ERX-41]
ERα-positive cell lines [1]
  IC50: 50 to 1000 nM
ERα-positive cell lines [2]
  IC50: 100 to 125 nM
TNBC cells (MDA-MB-231)
  ER morphology by TEM: dramatic dilation of the ER
[3]
  ER stress markers in tumor xenograft tissues: enhanced p-PERK, and p-eIF2α staining
TNBC cells
  global de novo protein synthesis: blocked; also recorded: blocks de novo protein synthesis
[4]
  effect of LIPA knockout on cytotoxic response: abrogate the cytotoxic response to ERX-41
SUM-159 cells
  IC50: ~200 nM
[5]; ER stress and cell death
  responsiveness with mouse LXXLL sequence or mouse LIPA cDNA: restore responsiveness
[5]; Homo sapiens, SUM159, SUM-159 LIPA-KO + WT-LIPA, read-out: IC50 after reconstitution of WT-LIPA (KO+WT)
  IC50: 250 nM
[5]; KO+L242P, KO+L239P/L242P, KO+L239P/L242P/L243P
  proliferation and ER stress with LXXLL point mutants: inability of ERX-41 to affect proliferation or induce ER stress
[5]; lipase-competent mutant
  sensitivity after reconstitution of ΔLXXLL MT-LIPA (KO+ΔLXXLL): did not restore sensitivity to ERX-41
[5]; lipase-incompetent mutant
  sensitivity after reconstitution of H274Y MT-LIPA (KO+H274Y): restored sensitivity to ERX-41
[5]; localized to the ER
  ER stress and proliferation with LIPA with added KDEL sequence: restores the ability of ERX-41 to cause ER stress
[5]; not localized to the ER
  ER stress and proliferation with LIPA lacking the signal peptide: nor restore the ability of ERX-41 to cause ER stress

— patent US20250114313A1, “OLIGO-BENZAMIDE ANALOGS AND THEIR USE IN CANCER TREATMENT” (BOARD OF REGENTS, THE UNIVERSITY OF TEXAS SYSTEM, priority 2022, published 2025)
